Data on 15 compounds can be found in patent US20030073740A1, “Methods for treatment of lupus erythematosus” (priority 2001, published 2003).

Each structure is given as a SMILES string. Like-named read-outs stand apart in the source and are kept apart here.

By inhibition is commonly meant the change of the read-out against control, counted positive when it falls. Read a high inhibition as a response far below the control. The term Kd denotes the free concentration of one partner at which half of the binding sites on the other are occupied at equilibrium, for simple one-to-one binding.

The target in experiment [1] is T1, COX I (purified cyclooxygenase Type I) (Ovis aries, UniProt P05979).
T1 construct: The COX was purified from ram seminal vesicles; from tissue; host or cells: ram seminal vesicles
T1 sequence (P05979 25-600): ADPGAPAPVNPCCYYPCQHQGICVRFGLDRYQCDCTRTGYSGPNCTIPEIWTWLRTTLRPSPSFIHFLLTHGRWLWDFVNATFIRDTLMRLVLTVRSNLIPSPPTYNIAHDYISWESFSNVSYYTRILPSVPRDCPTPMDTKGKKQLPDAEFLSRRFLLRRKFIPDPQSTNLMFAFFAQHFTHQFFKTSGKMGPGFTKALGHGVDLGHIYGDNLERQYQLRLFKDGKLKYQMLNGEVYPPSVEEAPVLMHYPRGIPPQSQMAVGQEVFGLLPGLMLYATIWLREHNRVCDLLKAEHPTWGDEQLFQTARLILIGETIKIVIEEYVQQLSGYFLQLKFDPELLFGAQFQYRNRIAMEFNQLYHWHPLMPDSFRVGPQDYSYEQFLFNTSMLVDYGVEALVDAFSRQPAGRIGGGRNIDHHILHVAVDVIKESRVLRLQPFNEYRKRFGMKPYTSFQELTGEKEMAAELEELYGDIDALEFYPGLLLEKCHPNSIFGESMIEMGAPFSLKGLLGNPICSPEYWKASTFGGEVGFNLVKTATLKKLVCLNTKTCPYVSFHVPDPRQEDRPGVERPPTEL
The experiment in a line: Cyclooxygenase (COX) inhibition, purified COX. The class given is biochemical, ram. The note with it: arachidonic acid 100 μM, 2.0 min, 37° C. As for the experimental part:
COX catalyzes the formation of prostaglandins and thromboxane by the oxidative metabolism of arachidonic acid. The compound of Example 1 of this invention, as well as a positive control, (sulindac sulfide) were evaluated to determine whether they inhibited purified cyclooxygenase Type I (see Table 1 below).
The compounds of this invention were evaluated for inhibitory effects on purified COX. The COX was purified from ram seminal vesicles, as described by Boopathy, R. and Balasubramanian, J., 239:371-377, 1988. COX activity was assayed as described by Evans, A. T., et al., “Actions of Cannabis Constituents on Enzymes Of Arachidonate Metabolism Anti-Inflammatory Potential,” Biochem. Pharmacol., 36:2035-2037, 1987. Briefly, purified COX was incubated with arachidonic acid (100 μM) for 2.0 min at 37° C. in the presence or absence of test compounds. The assay was terminated by the addition of TCA, and COX activity was determined by absorbance at 530 nm.

Experiment [2] deals with T2, GST-cGB-PDE5 fusion protein (cGMP binding sites of human PDE5A) (Homo sapiens, UniProt O76074).
T2 construct: made in house; host or cells: E. coli BL21 (DE3)
Description: cGMP binding assay with GST-cGB-PDE5 fusion protein. The note with it: for competition with cGMP binding to GST-cGB-PDE5 at high concentration: 100 μM compound, cGMP 2 μM. The text has this: RT-PCR method is used to obtain the cGB domain of PDE5 with forward and reverse primers designed from bovine PDE5A cDNA sequence (McAllister-Lucas L. M. et al, J. Biol. Chem. 268, 22863-22873, 1993) and the selection among PDE 1-10 families. 5′-3′, Inc. kits for total RNA followed by oligo (dT) column purification of mRNA are used with HT-29 cells. […] It is then cloned into pGEX-5X-3 glutathione-S-transferase (GST) fusion vector (Pharmacia Biotech )with tac promoter, and EcoR1 and XhoI cut sites. The fusion vector is then transfected into E. Coli BL21 (DE3) bacteria (Invitrogen). The transfected BL21 bacteria is grown to log phase, and then IPTG is added as an inducer. The induction is carried at 20° C. for 24 hrs. The bacteria are harvested and lysed. The soluble cell lysate is incubated with GSH conjugated Sepharose 4B (GSH-Sepharose 4B). The GST-cGB-PDE5 fusion protein can bind to the GSH-Sepharose beads, and the other proteins are washed off from beads with excessive cold PBS.
Then, the mixture is transferred to Brandel MB-24 cell harvester with GF/B as the filter membrane followed by 2 washes with 10 mL of cold 5 mM potassium buffer(pH 6.8). The membranes are then cut out and transferred to scintillation vials followed by the addition of 1 mL of H2O and 6 mL of Ready Safe™ liquid scintillation cocktail to each vial. The vials are counted on a Beckman LS 6500 scintillation counter.
The quenching by filter membrane or other debris are also calibrated.

The next experiment relates to U937 cells. Description: apoptosis induction of U937 cells (active caspase 3 immunofluorescence). It counts as cell-based. The note with it: U937 cells, 24 hours. The procedure: U937 cells (from ATCC Rockville, Md.) were grown in RPMI media supplemented with 5% FCS, glutamine, antibiotic/antimycotic and sodium pyruvate. Total RNA was isolated from two U937 cultures, one treated with 5 nM TPA for 48 hours and one grown in normal media as listed above, using the Rouche High Pure RNA Isolation Kit (cat# 1 828 665) as per manufacturers protocol. cDNA was then synthesized from the total RNA using GibcoBRL SuperscriptII (Cat # 18064-022) reverse transcriptase as per manufacturers protocol. The resulting cDNA was used as a template for RT-PCR reactions using primer sets specific for PDE2 (forward: […], reverse: […]) or PDE5 (forward: […], reverse: […]). mRNA for PDE2 and 5 were both present in the untreated U937 cells. Upon treatment with TPA, the relative amounts of PDE2 mRNA increased 5 fold. Therefore, U937 cells treated with TPA and driven to differentiate into an activated macrophage like state have elevated levels of PDE2 mRNA (see FIG. 1).
The presence of PDE2 and PDE5 protein within U937 cells was confirmed by indirect immunofluorescence (IIF). U937 cells were cultured as above. Two U937 cultures, one grown in the presence of 5 nM TPA for 48 hours and one grown in normal media were processed. All cultures were collected by centrifugation (Shandon Cytospin, 2 minutes @ 600 rpm) onto poly-L lysine-coated slides and immediately fixed in fresh 3% paraformaldehyde buffered in PBS for 10 minutes. Adherent cultures were grown on coverslips and fixed as above. Cells were permeablized in 0.2% triton-100 for 2 minutes. Slides were blocked with blocking buffer (5% goat serum, 5% glycerol, 1% gelatin from cold water fish skin and 0.04% NaN3 in PBS) for 1 hour at room temperature.
Adherent cells were dislodged by treatment with trypsin EDTA for 5 minutes at 37° C. Cells were then processed for IIF as described above, except that an antibody specific for active caspase 3 was used (as per manufacturer's protocol) instead of antibodies to PDE2 or 5 (Promega Cat. #G7481). The anti-active caspase 3 antibody was diluted 1:200 in blocking buffer and processed according to the manufacturer's protocol. The resulting slides were observed under a fluorescent microscope and a digital images were obtained.
The level of apoptosis in U937 cells was quantified by scoring 500 consecutive cells for the presence of active caspase 3.
The cells were harvested and processed for IIF as described above using an antibody that specifically recognizes active caspase 3. […] Therefore, the inhibition of only PDE4 or PDE5 alone (i.e. without the inhibition of PDE2) is not sufficient to induce apoptosis in U937 cells.

The target of the next experiment is native bovine PDE5 (Bos taurus, UniProt Q28156). The note with it: read-out: Kd of cGMP binding, native bovine PDE5; cited from earlier work.

T2 sequence (O76074 46-539 limits assumed): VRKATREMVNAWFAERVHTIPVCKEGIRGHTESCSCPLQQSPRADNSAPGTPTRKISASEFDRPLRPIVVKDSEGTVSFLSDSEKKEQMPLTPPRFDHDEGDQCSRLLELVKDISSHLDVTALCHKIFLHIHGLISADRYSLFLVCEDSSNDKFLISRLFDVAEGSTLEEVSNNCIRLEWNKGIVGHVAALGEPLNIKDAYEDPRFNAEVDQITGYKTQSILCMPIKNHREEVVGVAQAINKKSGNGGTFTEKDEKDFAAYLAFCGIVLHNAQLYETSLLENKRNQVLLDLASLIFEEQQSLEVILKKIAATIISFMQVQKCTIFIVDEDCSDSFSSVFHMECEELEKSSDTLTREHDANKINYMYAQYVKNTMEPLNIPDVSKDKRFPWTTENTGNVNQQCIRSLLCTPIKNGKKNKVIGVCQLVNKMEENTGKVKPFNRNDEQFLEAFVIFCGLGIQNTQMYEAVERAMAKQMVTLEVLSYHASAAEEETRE

In turn, `CC1=C(CC(=O)NCc2ccccc2)c2cc(F)ccc2/C1=C\c1ccncc1` [Example 1, (Z)-5-Fluoro-2-Methyl-(4-Pyridinylidene)-3-(N-Benzyl)-Indenylacetamide] yielded an inhibition at 100 µM in experiment [1] below 25%.

As to `O=c1[nH]cnc2c1ncn2[C@@H]1O[C@@H]2COP(=O)(O)O[C@H]2[C@H]1O` [Cyclic IMP], the “competition with cGMP binding to GST-cGB-PDE5 at high concentration” value in experiment [2] is recorded as “partially compete”. For `COc1ccc(C2CNC(=O)C2)cc1OC1CCCC1` (stereo not drawn) [rolipram, reference compound], in the experiment with U937 cells (0.5 uM), the “levels of apoptosis compared to normal background (active caspase 3)” value is “No increase in the levels of apoptosis”. As for `CSc1ccc(/C=C2/C(C)=C(CC(=O)O)c3cc(F)ccc32)cc1` [Sulindac sulfide, sulindac sulfide, reference compound], in experiment [2] (3H-cGMP 2 μM), the “competition with cGMP in binding to the cGMP binding sites of GST-cGB-PDE5” value (“competition with cGMP in binding” for short) is on record as “None of the PDE5 inhibitors showed any competition”. This compound registered an inhibition at 100 µM in experiment [1] of 86%.

Take `Nc1ncnc2c1ncn2[C@@H]1O[C@@H]2COP(=O)(O)O[C@H]2[C@H]1O` [Cyclic AMP]: the “competition with cGMP in binding” value in experiment [2] is given as “did not compete”. On to `Nc1ccn([C@@H]2O[C@@H]3COP(=O)(O)O[C@H]3[C@H]2O)c(=O)n1` [cCMP, cyclic CMP], for which, in experiment [2] (3H-cGMP 2 μM), the “competition with cGMP in binding” value is listed as “did not compete”. The same measure, in the same setting: with `CCCCOC1C2OP(=O)(O)OCC2OC1n1cnc2c(N)ncnc21` (stereo not drawn) [2′-O-butyl-cAMP] the entry was “did not compete”; with `CCCOc1ccccc1-c1nc2nn[nH]c2c(=O)[nH]1` [zaprinast], “None of the PDE5 inhibitors showed any competition”. For `CCCCOC1C2OP(=O)(O)OCC2OC1n1cnc2c(=O)[nH]c(N)nc21` (stereo not drawn) [2′-O-butyl-cGMP], the “competition with cGMP in binding” value in experiment [2] (3H-cGMP 2 μM) is given as “did not compete”. The same measure, in the same setting: the entry for `O=C(O)C1CCN(c2nc(NCc3ccc4c(c3)OCO4)c3cc(Cl)ccc3n2)CC1` [Example E4021] is “None of the PDE5 inhibitors showed any competition”; for `O=c1ccn([C@@H]2O[C@@H]3COP(=O)(O)O[C@H]3[C@H]2O)c(=O)[nH]1` [cUMP, cyclic UMP] it is “did not compete”. For `Nc1nc2c(nc(Br)n2[C@@H]2O[C@@H]3COP(=O)(O)O[C@H]3[C@H]2O)c(=O)[nH]1` [Example 8-bromo-cGMP, 8-bromo-cGMP], the “competition with cGMP binding to GST-cGB-PDE5 at high concentration” value in experiment [2] is given as “partially compete”.

Take `CCCc1nn(C)c2c(=O)[nH]c(-c3cc(S(=O)(=O)N4CCN(C)CC4)ccc3OCC)nc12` [sildenafil, reference compound]: the “levels of apoptosis compared to normal background (active caspase 3)” value in the experiment on U937 cells (0.3 nM) is “No increase in the levels of apoptosis”. Consider `CC1=C(CC(=O)O)c2cc(F)ccc2/C1=C\c1ccc(S(C)(=O)=O)cc1` [exisulind], for which, in experiment [2] (3H-cGMP 2 μM), the “competition with cGMP in binding” value is recorded as “None of the PDE5 inhibitors showed any competition”.

With `Nc1nc2c(ncn2[C@@H]2O[C@@H]3COP(=O)(O)O[C@H]3[C@H]2O)c(=O)[nH]1` [cGMP, cyclic 3′,5′-guanosine monophosphate], the “competition with cGMP in binding” value in experiment [2] (3H-cGMP 2 μM) is “specifically bound”. Moreover, the Kd in experiment [2] (read-out: Kd of cGMP binding to GST-cGB-PDE5 fusion protein, two cGMP binding sites) was 1600 ± 200 nM; at native bovine PDE5, 1300 nM.
